The values that follow are results of earlier work, collected in US20050192272A1, “Substituted benzodiazepines as inhibitors of the chemokine receptor CXCR4” (priority 2003, published 2005).

The term IC50 denotes the concentration that inhibits the measured activity by half.

For data set [1] the following is noted: Phase I/II clinical trials.
The conditions of data set [2]: rats.
A further data set deals with CXCR4 (Homo sapiens, UniProt P61073). As to conditions: read-out: IC50 in inhibiting the binding of CXCL12 to CXCR4.
Sequence of CXCR4 (P61073 whole entry): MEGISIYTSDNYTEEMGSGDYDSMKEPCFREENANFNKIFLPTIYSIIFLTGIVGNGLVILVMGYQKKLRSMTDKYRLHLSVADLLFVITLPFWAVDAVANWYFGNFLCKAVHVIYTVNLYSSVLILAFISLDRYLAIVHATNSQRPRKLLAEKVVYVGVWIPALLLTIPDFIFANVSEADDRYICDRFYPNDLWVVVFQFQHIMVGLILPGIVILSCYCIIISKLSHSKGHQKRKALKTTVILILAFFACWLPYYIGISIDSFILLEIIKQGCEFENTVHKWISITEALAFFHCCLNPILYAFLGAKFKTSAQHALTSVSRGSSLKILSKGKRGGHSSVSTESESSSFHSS

For `c1cc(CN2CCCNCCNCCCNCC2)ccc1CN1CCCNCCNCCCNCC1` [ALX40-4C], the acute cardiac toxicity entry (month-long clinical study, 1995) is “did not exhibit any acute cardiac toxicity”. Moreover, the adverse side effects result (one-month Phase I/II clinical study) is “no adverse side effects”.

In the case of “[Tyr^5,12, Lys^7]-polyphemusin II [T-22]”, the “inhibition of multiplication of X4-strains of HIV” value in the data set with X4-strains of HIV (through specific binding to the CXCR4 receptor) was “strongly inhibit”.

On to `c1cc(CN2CCCNCCNCCCNCC2)ccc1CN1CCCNCCNCCCNCC1` [AMD3100], for which, in data set [1], the cardiac toxicity result is on record as “exhibited certain cardiac toxicity properties” and the effectiveness result is given as “limited effectiveness”.

As for `C[C@H](NC(=O)[C@H](CCCNC(=N)N)NC(=O)c1ccc(CNCc2ccccn2)cc1)c1cccc2ccccc12` [KRH-1636], in data set [2], the “absorption from the duodenum” value is given as “absorbed from the duodenum in rats”.

With c(Nal-Gly-tyr-Arg-Arg) [FC131], the IC50 at CXCR4 is 4 nM. Moreover, the “level of anti-HIV activity and antagonism among CXCR4 antagonists reported to date” value in the data set on X4-strains of HIV was “matched”.
